Laboratory results taken from patent US7705144B2, “Dyes of improved optical brightness and/or fluorescence and compositions containing them” (priority 2007, dated 2010).
“Also recorded” adds a separate entry of the source.

Experiments:
[1] = Solubility of the dyes in water, mineral oil and organic solvents; type: physicochemical; details: for solubility in organic solvents: which solvents dissolve the dye
[2] = Stability of kaolin pigment powder in oil and in water; type: physicochemical; details: product deposited on kaolin; oil / mineral oil and water
Procedure: A small amount of the product was dissolved in acetone (10 mg in 20 mL), which was slowly added to kaolin (10 g). The solution was heated to 30° C. and the solvent allowed to slowly evaporate with mixing.
A small amount of the product was dissolved in methylene chloride (50 mg in 30 mL), which was slowly added to kaolin (5 g). The suspension was heated to 30° C. and the solvent allowed to slowly evaporate with mixing.

[3] = unmodified precursor dye; cited from earlier work

solubility in acetone, alcohol, and chlorinated solvents [1] | solubility in mineral oil [1] | solubility in water [1] | solubility in organic solvents [1] | Compound | solubility in water of the precursor dye [3] | other results
show solubility | insoluble | insoluble | – | CCCCCCCCOc1nc(Nc2cc3sc4cc(=[N+](C)C)ccc-4nc3cc2C)nc(N(c2ccccc2)c2ccccc2)n1 [Compound I] | – | solubility in methanol ([1]; methanol): soluble; stability of the resulting powder in oil and in water [2]: stable in oil and in water
dissolves | insoluble | not soluble | soluble only in alcohol or acetone | CC1CCC(Oc2nc(Oc3ccc4c(-c5ccccc5C(=O)O)c5ccc(=O)cc-5oc4c3)nc(OC3CCC(C)CC3C(C)C)n2)C(C(C)C)C1 (stereo not shown) [Compound IV] | – | –
– | – | – | – | Cc1cc2nc3ccc(N(C)C)cc3[s+]c2cc1N.[Cl-] [toluidine blue O] | water soluble | –
– | – | – | soluble only in alcohol or acetone | CC1CCC(Oc2nc(Nc3ccc(CO)cc3)nc(OC3CCC(C)CC3C(C)C)n2)C(C(C)C)C1 (stereo not shown) [Compound III] | – | stability of the resulting powder in oil and in water [2]: stable in water and in mineral oil
– | – | – | – | O=C1OC2(c3ccc(O)cc3Oc3cc(O)ccc32)c2ccccc21 [fluorescein] | soluble in water | –
– | – | – | – | N=C1C=CC(=C(c2ccc(N)cc2)c2ccc(N)cc2)C=C1 [pararosaniline] | water soluble | –

Compound | solubility in acetone, alcohol, and chlorinated solvents [1] | solubility in mineral oil [1] | solubility in water [1] | solubility in organic solvents [1] | solubility in water of the precursor dye [3] | other results
C=Cc1ccc(Nc2nc(OCCCCCCCC)nc(Oc3ccc(C(c4ccccc4)(c4ccccc4)c4ccccc4)cc3)n2)cc1 [Compound II] | show solubility | insoluble | insoluble | solubility only to dichloromethane and toluene; also recorded: only soluble in boiling toluene or dichloromethane | – | solubility in organic solvents ([1]; listed as Example 2): insoluble to common organic solvents, except for hot dichloromethane and toluene
